The text below walks through data of publication PMC9146426, “3,6′- and 1,6′-Dithiopomalidomide Mitigate Ischemic Stroke in Rats and Blunt Inflammation” (Pharmaceutics, 2022).

The structures appear in SMILES notation.

The target in the assay is T1, cereblon (Homo sapiens, UniProt Q96SW2).
T1 construct: gene CRBN; cereblon/DDB1-CUL4A-Rbx1 complex; with DDB1-CUL4A-Rbx1
In words: AlphaScreen bead-based cereblon binding assay (BPS Bioscience #[…]) with BRD3.

T1 sequence (Q96SW2 whole entry): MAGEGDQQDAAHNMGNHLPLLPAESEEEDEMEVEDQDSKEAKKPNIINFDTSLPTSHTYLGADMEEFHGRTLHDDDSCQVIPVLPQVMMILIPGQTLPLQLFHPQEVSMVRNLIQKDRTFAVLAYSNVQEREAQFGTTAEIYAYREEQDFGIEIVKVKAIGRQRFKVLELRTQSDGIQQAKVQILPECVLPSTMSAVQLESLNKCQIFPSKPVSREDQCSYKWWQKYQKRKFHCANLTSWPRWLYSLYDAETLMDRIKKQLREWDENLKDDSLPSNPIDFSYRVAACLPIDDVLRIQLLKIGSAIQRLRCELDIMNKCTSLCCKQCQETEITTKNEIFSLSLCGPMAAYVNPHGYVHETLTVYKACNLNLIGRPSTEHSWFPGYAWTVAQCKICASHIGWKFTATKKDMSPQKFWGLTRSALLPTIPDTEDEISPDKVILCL
T1 sequence (Q16531 2-1140 partner): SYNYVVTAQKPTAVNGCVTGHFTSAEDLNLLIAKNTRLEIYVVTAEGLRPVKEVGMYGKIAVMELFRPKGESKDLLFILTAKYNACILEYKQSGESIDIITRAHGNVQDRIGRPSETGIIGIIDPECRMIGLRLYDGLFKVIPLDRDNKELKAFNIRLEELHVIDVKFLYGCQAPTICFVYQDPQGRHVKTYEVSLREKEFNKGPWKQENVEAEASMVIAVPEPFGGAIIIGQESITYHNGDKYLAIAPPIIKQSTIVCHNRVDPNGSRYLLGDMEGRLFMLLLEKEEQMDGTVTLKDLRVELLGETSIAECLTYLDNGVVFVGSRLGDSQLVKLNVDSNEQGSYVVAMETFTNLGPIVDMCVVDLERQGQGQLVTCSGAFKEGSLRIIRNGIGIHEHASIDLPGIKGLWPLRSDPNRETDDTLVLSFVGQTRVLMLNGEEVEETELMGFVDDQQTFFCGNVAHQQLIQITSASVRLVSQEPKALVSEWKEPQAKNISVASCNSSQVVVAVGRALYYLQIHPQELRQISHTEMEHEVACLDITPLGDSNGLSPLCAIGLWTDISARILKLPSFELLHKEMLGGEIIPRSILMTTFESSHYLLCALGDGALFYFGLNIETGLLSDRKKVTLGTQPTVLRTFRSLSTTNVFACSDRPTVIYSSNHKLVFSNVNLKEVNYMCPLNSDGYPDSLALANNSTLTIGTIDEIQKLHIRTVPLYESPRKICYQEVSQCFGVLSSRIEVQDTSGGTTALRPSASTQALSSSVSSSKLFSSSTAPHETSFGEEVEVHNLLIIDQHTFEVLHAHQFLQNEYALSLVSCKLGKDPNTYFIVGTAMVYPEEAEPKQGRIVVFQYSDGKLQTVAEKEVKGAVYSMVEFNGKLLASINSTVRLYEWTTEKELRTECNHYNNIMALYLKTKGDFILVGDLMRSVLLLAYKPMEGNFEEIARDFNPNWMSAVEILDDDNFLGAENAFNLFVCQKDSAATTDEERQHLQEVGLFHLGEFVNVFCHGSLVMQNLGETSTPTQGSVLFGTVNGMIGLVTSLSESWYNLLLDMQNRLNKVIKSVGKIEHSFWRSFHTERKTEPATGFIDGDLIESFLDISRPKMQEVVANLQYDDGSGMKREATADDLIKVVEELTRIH
T1 sequence (Q13619 whole entry partner): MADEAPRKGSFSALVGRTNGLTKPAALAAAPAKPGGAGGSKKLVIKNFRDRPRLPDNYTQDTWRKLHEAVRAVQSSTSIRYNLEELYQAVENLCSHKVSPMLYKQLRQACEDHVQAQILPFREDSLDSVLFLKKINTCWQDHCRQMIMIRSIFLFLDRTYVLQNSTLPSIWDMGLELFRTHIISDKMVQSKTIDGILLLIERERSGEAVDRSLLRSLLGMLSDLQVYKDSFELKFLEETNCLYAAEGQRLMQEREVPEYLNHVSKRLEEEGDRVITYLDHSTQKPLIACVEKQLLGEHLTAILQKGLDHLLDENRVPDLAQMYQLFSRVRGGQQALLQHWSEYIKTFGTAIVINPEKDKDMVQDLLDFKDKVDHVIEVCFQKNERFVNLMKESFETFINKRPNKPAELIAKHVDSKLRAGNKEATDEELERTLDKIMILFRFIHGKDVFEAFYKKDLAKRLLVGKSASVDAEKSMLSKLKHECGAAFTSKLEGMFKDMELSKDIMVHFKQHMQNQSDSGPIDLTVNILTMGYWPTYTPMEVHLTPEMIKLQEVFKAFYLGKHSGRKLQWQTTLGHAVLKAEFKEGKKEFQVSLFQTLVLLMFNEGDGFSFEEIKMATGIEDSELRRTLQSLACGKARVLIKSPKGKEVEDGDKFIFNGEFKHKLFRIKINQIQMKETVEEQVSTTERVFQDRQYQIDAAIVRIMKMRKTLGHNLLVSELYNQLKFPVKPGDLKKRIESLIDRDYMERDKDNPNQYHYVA
T1 sequence (P62877 whole entry partner): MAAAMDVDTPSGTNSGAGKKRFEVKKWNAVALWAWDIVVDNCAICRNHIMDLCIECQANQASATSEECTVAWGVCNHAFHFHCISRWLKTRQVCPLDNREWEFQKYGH

With `Nc1cccc2c1C(=O)N(C1CCC(=S)NC1=O)C2=S` (centres unmarked) [1,6′-DP, 1,6′-dithiopomalidomide], the IC50 was 1520 nM. The same measure for `Nc1cccc2c1C(=S)N(C1CCC(=S)NC1=O)C2=O` (centres unmarked) [3,6′-DP, 3,6′-dithiopomalidomide]: 940 nM.

By IC50 is commonly meant the concentration that gives 50% inhibition. A low value points to higher potency.
